# Test results taken from ChEMBL document CHEMBL3885861, “Open TG-GATES”.
# Organism: Rattus norvegicus
# Assay: Open TG-GATES - Regimen: Single
# Type: toxicity, organism-based, Sprague-Dawley
# Parameters: regimen Single, gender Male, age 6 weeks
# Details: in vivo, po, route gavage; for TG / TP / gamma-GTP / ALP / ALT / AST / BUN / CRE / Ca / DBIL / IP / K / LDH / Na / PL / RALB / TBIL / TC: tissue Plasma; for Bas / Eos / Fbg / Hb / Ht / Lym / MCHC / Mono / Neu / PT / Plat / RBC / Ret / WBC / MCH: tissue Blood; for KIDNEY_L / KIDNEY_R / KIDNEY_TOTAL: tissue Kidney; for LIVER: tissue Liver
# [1] = 0 mg/kg, 24 h, dose level Control
smiles,measurement,setting,value
CCC(C)(C)C(=O)O[C@H]1C[C@@H](C)C=C2C=C[C@H](C)[C@H](CC[C@@H]3C[C@@H](O)CC(=O)O3)[C@H]21 [SIMVASTATIN],TG,[1],76.6 mg/dL
same,TP,[1],5.5 g/dL
same,gamma-GTP,[1],1.6 IU/L
same,TERMINAL_BW,"40 mg/kg, 3 h, dose level Low",203.4 g
same,Bas,"40 mg/kg, 3 h, dose level Low",0%
same,Eos,"40 mg/kg, 3 h, dose level Low",0.6%
same,Fbg,"40 mg/kg, 3 h, dose level Low",213.2 mg/dL
same,Hb,"40 mg/kg, 3 h, dose level Low",12.4 g/dL
same,Ht,"40 mg/kg, 3 h, dose level Low",37.8%
same,Lym,"40 mg/kg, 3 h, dose level Low",81.6%
same,MCHC,"40 mg/kg, 3 h, dose level Low",32.8%
same,Mono,"40 mg/kg, 3 h, dose level Low",6%
same,Neu,"40 mg/kg, 3 h, dose level Low",12%
same,PT,"40 mg/kg, 3 h, dose level Low",11 s
same,Plat,"40 mg/kg, 3 h, dose level Low",112.7 x10_4/uL
same,RBC,"40 mg/kg, 3 h, dose level Low",568 x10_4/ul
same,Ret,"40 mg/kg, 3 h, dose level Low",10%
same,WBC,"40 mg/kg, 3 h, dose level Low",120.8 x10_2/uL
same,KIDNEY_L,"40 mg/kg, 3 h, dose level Low",0.9 g
same,KIDNEY_R,"40 mg/kg, 3 h, dose level Low",0.9 g
same,KIDNEY_TOTAL,"40 mg/kg, 3 h, dose level Low",1.9 g
same,LIVER,"40 mg/kg, 3 h, dose level Low",9.7 g
same,ALP,"40 mg/kg, 3 h, dose level Low",793.6 IU/L
same,ALT,"40 mg/kg, 3 h, dose level Low",31.4 IU/L
same,AST,"40 mg/kg, 3 h, dose level Low",61.6 IU/L
same,BUN,"40 mg/kg, 3 h, dose level Low",13.6 mg/dL
same,CRE,"40 mg/kg, 3 h, dose level Low",0.6 mg/dL
same,Ca,"40 mg/kg, 3 h, dose level Low",10.8 mg/dL
same,DBIL,"40 mg/kg, 3 h, dose level Low",0.04 mg/dL
same,IP,"40 mg/kg, 3 h, dose level Low",8.9 mg/dL
same,K,"40 mg/kg, 3 h, dose level Low",4.4 meq/L
same,LDH,"40 mg/kg, 3 h, dose level Low",91.8 IU/L
same,Na,"40 mg/kg, 3 h, dose level Low",137.8 meq/L
same,PL,"40 mg/kg, 3 h, dose level Low",144.6 mg/dL
same,RALB,"40 mg/kg, 3 h, dose level Low",3.8 g/dL
same,TBIL,"40 mg/kg, 3 h, dose level Low",0.3 mg/dL
same,TC,"40 mg/kg, 3 h, dose level Low",77.4 mg/dL
same,TG,"40 mg/kg, 3 h, dose level Low",71.2 mg/dL
same,TP,"40 mg/kg, 3 h, dose level Low",5.6 g/dL
same,gamma-GTP,"40 mg/kg, 3 h, dose level Low",1.4 IU/L
same,TERMINAL_BW,"40 mg/kg, 6 h, dose level Low",196.1 g
same,Bas,"40 mg/kg, 6 h, dose level Low",0%
same,Eos,"40 mg/kg, 6 h, dose level Low",1%
same,Fbg,"40 mg/kg, 6 h, dose level Low",216.2 mg/dL
same,Hb,"40 mg/kg, 6 h, dose level Low",13.4 g/dL
same,Ht,"40 mg/kg, 6 h, dose level Low",41.2%
same,Lym,"40 mg/kg, 6 h, dose level Low",81.6%
same,MCH,"40 mg/kg, 6 h, dose level Low",21.8 pg
same,MCHC,"40 mg/kg, 6 h, dose level Low",32.6%
same,Mono,"40 mg/kg, 6 h, dose level Low",7.4%
same,Neu,"40 mg/kg, 6 h, dose level Low",10.2%
same,Plat,"40 mg/kg, 6 h, dose level Low",112.9 x10_4/uL
same,RBC,"40 mg/kg, 6 h, dose level Low",615.8 x10_4/ul
same,Ret,"40 mg/kg, 6 h, dose level Low",9.1%
same,WBC,"40 mg/kg, 6 h, dose level Low",93.2 x10_2/uL
same,KIDNEY_L,"40 mg/kg, 6 h, dose level Low",0.9 g
same,KIDNEY_R,"40 mg/kg, 6 h, dose level Low",0.9 g
same,KIDNEY_TOTAL,"40 mg/kg, 6 h, dose level Low",1.8 g
same,LIVER,"40 mg/kg, 6 h, dose level Low",8.7 g
same,ALP,"40 mg/kg, 6 h, dose level Low",826.8 IU/L
same,ALT,"40 mg/kg, 6 h, dose level Low",32.8 IU/L
same,AST,"40 mg/kg, 6 h, dose level Low",58.6 IU/L
same,CRE,"40 mg/kg, 6 h, dose level Low",0.5 mg/dL
same,Ca,"40 mg/kg, 6 h, dose level Low",10.2 mg/dL
same,DBIL,"40 mg/kg, 6 h, dose level Low",0.08 mg/dL
same,IP,"40 mg/kg, 6 h, dose level Low",9.6 mg/dL
same,K,"40 mg/kg, 6 h, dose level Low",4.4 meq/L
same,LDH,"40 mg/kg, 6 h, dose level Low",98.4 IU/L
same,Na,"40 mg/kg, 6 h, dose level Low",137.6 meq/L
same,PL,"40 mg/kg, 6 h, dose level Low",132.4 mg/dL
same,RALB,"40 mg/kg, 6 h, dose level Low",3.6 g/dL
same,TBIL,"40 mg/kg, 6 h, dose level Low",0.4 mg/dL
same,TC,"40 mg/kg, 6 h, dose level Low",75.8 mg/dL
same,TG,"40 mg/kg, 6 h, dose level Low",50.8 mg/dL
same,TP,"40 mg/kg, 6 h, dose level Low",5.6 g/dL
same,gamma-GTP,"40 mg/kg, 6 h, dose level Low",1.2 IU/L
same,TERMINAL_BW,"40 mg/kg, 9 h, dose level Low",200.4 g
same,Bas,"40 mg/kg, 9 h, dose level Low",0%
same,Eos,"40 mg/kg, 9 h, dose level Low",0.8%
same,Fbg,"40 mg/kg, 9 h, dose level Low",214.8 mg/dL
same,Hb,"40 mg/kg, 9 h, dose level Low",13.2 g/dL
same,Ht,"40 mg/kg, 9 h, dose level Low",40.1%
same,Lym,"40 mg/kg, 9 h, dose level Low",78.6%
same,MCH,"40 mg/kg, 9 h, dose level Low",22 pg
same,MCHC,"40 mg/kg, 9 h, dose level Low",32.9%
same,Mono,"40 mg/kg, 9 h, dose level Low",7.8%
same,Neu,"40 mg/kg, 9 h, dose level Low",12.8%
same,PT,"40 mg/kg, 9 h, dose level Low",11.7 s
same,Plat,"40 mg/kg, 9 h, dose level Low",110 x10_4/uL
same,RBC,"40 mg/kg, 9 h, dose level Low",601.2 x10_4/ul
same,Ret,"40 mg/kg, 9 h, dose level Low",9.1%
same,WBC,"40 mg/kg, 9 h, dose level Low",101.8 x10_2/uL
same,KIDNEY_L,"40 mg/kg, 9 h, dose level Low",0.9 g
same,KIDNEY_R,"40 mg/kg, 9 h, dose level Low",0.9 g
same,KIDNEY_TOTAL,"40 mg/kg, 9 h, dose level Low",1.8 g
same,LIVER,"40 mg/kg, 9 h, dose level Low",8.2 g
same,ALP,"40 mg/kg, 9 h, dose level Low",749.6 IU/L
same,ALT,"40 mg/kg, 9 h, dose level Low",32.8 IU/L
same,AST,"40 mg/kg, 9 h, dose level Low",58.4 IU/L
same,BUN,"40 mg/kg, 9 h, dose level Low",12.6 mg/dL
same,CRE,"40 mg/kg, 9 h, dose level Low",0.7 mg/dL
same,DBIL,"40 mg/kg, 9 h, dose level Low",0.016 mg/dL
same,K,"40 mg/kg, 9 h, dose level Low",4.6 meq/L
same,LDH,"40 mg/kg, 9 h, dose level Low",91 IU/L
same,Na,"40 mg/kg, 9 h, dose level Low",138 meq/L
same,PL,"40 mg/kg, 9 h, dose level Low",118.4 mg/dL
same,RALB,"40 mg/kg, 9 h, dose level Low",3.7 g/dL
same,TBIL,"40 mg/kg, 9 h, dose level Low",0.4 mg/dL
same,TC,"40 mg/kg, 9 h, dose level Low",64.8 mg/dL
same,TG,"40 mg/kg, 9 h, dose level Low",42 mg/dL
same,TP,"40 mg/kg, 9 h, dose level Low",5.4 g/dL
same,gamma-GTP,"40 mg/kg, 9 h, dose level Low",2 IU/L
same,TERMINAL_BW,"40 mg/kg, 24 h, dose level Low",216.2 g
same,Bas,"40 mg/kg, 24 h, dose level Low",0%
same,Eos,"40 mg/kg, 24 h, dose level Low",1%
same,Fbg,"40 mg/kg, 24 h, dose level Low",221.2 mg/dL
same,Hb,"40 mg/kg, 24 h, dose level Low",12.5 g/dL
same,Ht,"40 mg/kg, 24 h, dose level Low",38.2%
same,Lym,"40 mg/kg, 24 h, dose level Low",78.6%
same,MCHC,"40 mg/kg, 24 h, dose level Low",32.8%
same,Mono,"40 mg/kg, 24 h, dose level Low",9.8%
same,Neu,"40 mg/kg, 24 h, dose level Low",11%
same,Plat,"40 mg/kg, 24 h, dose level Low",119.9 x10_4/uL
same,RBC,"40 mg/kg, 24 h, dose level Low",588.4 x10_4/ul
same,WBC,"40 mg/kg, 24 h, dose level Low",118.8 x10_2/uL
same,KIDNEY_L,"40 mg/kg, 24 h, dose level Low",1 g
same,KIDNEY_R,"40 mg/kg, 24 h, dose level Low",1 g
same,KIDNEY_TOTAL,"40 mg/kg, 24 h, dose level Low",2 g
same,LIVER,"40 mg/kg, 24 h, dose level Low",10.8 g
same,ALP,"40 mg/kg, 24 h, dose level Low",866.2 IU/L
same,ALT,"40 mg/kg, 24 h, dose level Low",41.6 IU/L
same,AST,"40 mg/kg, 24 h, dose level Low",63.6 IU/L
same,BUN,"40 mg/kg, 24 h, dose level Low",18.6 mg/dL
same,CRE,"40 mg/kg, 24 h, dose level Low",0.5 mg/dL
same,Ca,"40 mg/kg, 24 h, dose level Low",10.8 mg/dL
same,DBIL,"40 mg/kg, 24 h, dose level Low",0.022 mg/dL
same,IP,"40 mg/kg, 24 h, dose level Low",8.4 mg/dL
same,K,"40 mg/kg, 24 h, dose level Low",4.6 meq/L
same,LDH,"40 mg/kg, 24 h, dose level Low",108.4 IU/L
same,Na,"40 mg/kg, 24 h, dose level Low",140.2 meq/L
same,PL,"40 mg/kg, 24 h, dose level Low",144.6 mg/dL
same,RALB,"40 mg/kg, 24 h, dose level Low",3.7 g/dL
same,TBIL,"40 mg/kg, 24 h, dose level Low",0.3 mg/dL
